Read-outs that look alike come from different tables or passages of the source.
How the values were obtained:
[1] = test system: HCV genotype 1b (Con1) replicon in HUH-7 cells; assay: HCV replicon luciferase reporter assay, genotype 1b; type: cell-based; settings: Hepatitis C virus, Huh-7, 72 h, 3 days incubation, read-out: LE_1b (EC50, range)
How it was run: (§1)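 Replicon inhibition for both genotypes was measured as Renilla luciferase signal (EnduRen, 7.5 μM final, 2 h) after 3-day, 37° C exposure of replicon-bearing HUH-7 cells in 4% FCS DMEM, 0.5% DMSO. The 1b construct carries S1179I; the 1a H77 construct carries P1496L and S2204I. Twenty-point, 3-fold dilutions were fitted four-parametrically for EC50, and CC50 was taken from multiplexed Cell Titer-Blue.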

[2] = test system: HCV genotype 1a (H77 strain) replicon in HUH-7 cells; assay: HCV replicon luciferase reporter assay, genotype 1a; type: cell-based; settings: Hepatitis C virus, Huh-7, 72 h, 3 days incubation, read-out: LE_1a (EC50, range)
How it was run: as §1

[3] = HCV genotype 1b replicon luciferase assay, range class
[4] = HCV genotype 1a replicon luciferase assay, range class
[5] = HCV genotype 1b replicon luciferase
[6] = HCV genotype 1a replicon luciferase

Question: Which EC50 ([1]; GETYPE1B, HCV genotype 1b replicon luciferase) does the source give for COc1cc2ccnc(O[C@@H]3C[C@H]4C(=O)N[C@]5(C(=O)NS(=O)(=O)C6(F)CC6)C[C@H]5/C=C\CC[C@@H](C)C[C@@H](C)[C@H](NC(=O)OC(C)(C)C(F)(F)F)C(=O)N4C3)c2cc1Cl [Compound 4043] here?
Answer: < 5.46 nM

Question: And the EC50 ([2]; GETYPE1A, HCV genotype 1a replicon luciferase)?
Answer: < 5.46 nM

Question: Which EC50 [1, 3] does the source give for COc1ccc2c(O[C@@H]3C[C@H]4C(=O)N[C@]5(C(=O)NS(=O)(=O)C6(CF)CC6)C[C@H]5/C=C\CC[C@H](C)C[C@@H](C)[C@H](NC(=O)OC(C)(C)C(F)(F)F)C(=O)N4C3)nc(N3CCCC3)nc2c1 [Compound 3018, 1,1,1-trifluoro-2-methylpropan-2-yl((2R,6S,7R,9S,13aS,14aR,16aS,Z)-14a-(((1-(fluoromethyl)cyclopropyl)sulfonyl)carbamoyl)-2-((7-methoxy-2-(pyrrolidin-1-yl)quinazolin-4-yl)oxy)-7,9-dimethyl-5,16-dioxo-1,2,3,5,6,7,8,9,10,11,13a,14,14a,15,16,16a-hexadecahydrocyclopropa[e]pyrrolo[1,2-a][1,4]diazacyclopentadecin-6-yl)carbamate] here?
Answer: 4.82 to 103 nM

Question: What about the EC50 [2, 4] of the same compound?
Answer: 4.82 to 103 nM

Question: COc1ccc2c(O[C@@H]3C[C@H]4C(=O)N[C@]5(C(=O)NS(=O)(=O)C6(C)CC6)C[C@H]5/C=C\CC[C@H](C)C[C@@H](C)[C@H](NC(=O)OC5(C(F)(F)F)COC5)C(=O)N4C3)nc(OC)cc2c1 [Compound 1140, 3-(trifluoromethyl)oxetan-3-yl ((2R,6S,7R,9S,13aS,14aR,16aS,Z)-2-((3,6-dimethoxyisoquinolin-1-yl)oxy)-7,9-dimethyl-14a-(((1-methylcyclopropyl)sulfonyl)carbamoyl)-5,16-dioxo-1,2,3,5,6,7,8,9,10,11,13a,14,14a,15,16,16a-hexadecahydrocyclopropa[e]pyrrolo[1,2-a][1,4]diazacyclopentadecin-6-yl)carbamate] was tested. Which EC50 [1, 3] did it give?
Answer: < 5.46 nM

Question: And the EC50 [2, 4]?
Answer: < 5.46 nM

Question: How did the EC50 [1, 5] turn out when COc1cnc(O[C@@H]2C[C@H]3C(=O)N[C@]4(C(=O)NS(=O)(=O)C5CCC5)C[C@H]4/C=C\CC[C@@H](C)C[C@@H](C)[C@H](NC(=O)OC(C)(C)C)C(=O)N3C2)c2ccccc12 [Compound 5352] was run?
Answer: < 5.46 nM

Question: What about the EC50 [2, 6] of the same compound?
Answer: < 5.46 nM

Question: What does the source list for CCCOc1cnc(O[C@@H]2C[C@H]3C(=O)N[C@]4(C(=O)NS(=O)(=O)C5CC5)C[C@H]4/C=C\CC[C@@H](C)C[C@@H](C)[C@H](NC(=O)NC(C)(C)C(F)(F)F)C(=O)N3C2)c2ccccc12 [Compound 5099, (2R,6S,7R,9R,13aS,14aR,16aS,Z)—N-(cyclopropylsulfonyl)-7,9-dimethyl-5,16-dioxo-2-((4-propoxyisoquinolin-1-yl)oxy)-6-(3-(1,1,1-trifluoro-2-methylpropan-2-yl)ureido)-1,2,3,5,6,7,8,9,10,11,13a,14,14a,15,16,16a-hexadecahydrocyclopropa[e]pyrrolo[1,2-a][1,4]diazacyclopentadecine-14a-carboxamide]?
Answer: EC50 [1, 5]: < 5.46 nM; EC50 [2, 6]: < 5.46 nM

Question: COc1ccc2c(O[C@@H]3C[C@H]4C(=O)N[C@]5(C(=O)NS(=O)(=O)C6(CF)CC6)C[C@H]5/C=C\CC[C@@H](C)C[C@@H](C)[C@H](NC(=O)OC5(C(F)(F)F)CCCOC5)C(=O)N4C3)ncc(C(F)(F)F)c2c1 (stereo partly drawn) [Compound 1177, 3-(trifluoromethyl)tetrahydro-2H-pyran-3-yl((2R,6S,7R,9R,13aS,14aR,16aS,Z)-14a-(((1-(fluoromethyl)cyclopropyl)sulfonyl)carbamoyl)-2-((6-methoxy-4-(trifluoromethyl)isoquinolin-1-yl)oxy)-7,9-dimethyl-5,16-dioxo-1,2,3,5,6,7,8,9,10,11,13a,14,14a,15,16,16a-hexadecahydrocyclopropa[e]pyrrolo[1,2-a][1,4]diazacyclopentadecin-6-yl)carbamate] was tested. Which EC50 [1, 3] did it give?
Answer: < 5.46 nM

Question: What about the EC50 [2, 4] of the same compound?
Answer: < 5.46 nM

Question: Which results are given for CCOc1ccc2c(O[C@@H]3C[C@H]4C(=O)N[C@]5(C(=O)NS(=O)(=O)C6(C)CC6)C[C@H]5/C=C\CC[C@H](C)C[C@@H](C)[C@H](NC(=O)NC(C)(C)C(F)(F)F)C(=O)N4C3)nccc2c1 [Compound 5143, (2R,6S,7R,9S,13aS,14aR,16aS,Z)-2-((6-ethoxyisoquinolin-1-yl)oxy)-7,9-dimethyl-N-((1-methylcyclopropyl)sulfonyl)-5,16-dioxo-6-(3-(1,1,1-trifluoro-2-methylpropan-2-yl)ureido)-1,2,3,5,6,7,8,9,10,11,13a,14,14a,15,16,16a-hexadecahydrocyclopropa[e]pyrrolo[1,2-a][1,4]diazacyclopentadecine-14a-carboxamide]?
Answer: EC50 [1, 5]: < 5.46 nM; EC50 [2, 6]: 4.82 to 103 nM

Question: CCOc1ccc2c(O[C@@H]3C[C@H]4C(=O)N[C@]5(C(=O)NS(=O)(=O)C6(C)CC6)C[C@H]5/C=C\CC[C@H](C)C[C@@H](C)[C@H](NC(=O)OC(C)(C)C)C(=O)N4C3)nccc2c1 [Compound 5133, tert-butyl ((2R,6S,7R,9S,13aS,14aR,16aS,Z)-2-((6-ethoxyisoquinolin-1-yl)oxy)-7,9-dimethyl-14a-(((1-methylcyclopropyl)sulfonyl)carbamoyl)-5,16-dioxo-1,2,3,5,6,7,8,9,10,11,13a,14,14a,15,16,16a-hexadecahydrocyclopropa[e]pyrrolo[1,2-a][1,4]diazacyclopentadecin-6-yl)carbamate] was tested. Which EC50 [1, 5] did it give?
Answer: < 5.46 nM

Question: And the EC50 [2, 6]?
Answer: 4.82 to 103 nM

Question: With COc1cc2cc(F)ccc2c(O[C@@H]2C[C@H]3C(=O)N[C@]4(C(=O)NS(=O)(=O)C5(CF)CC5)C[C@H]4/C=C\CC[C@@H](C)C[C@@H](C)[C@H](NC(=O)OC(C)(C)C(F)(F)F)C(=O)N3C2)n1 [Compound 3214, 1,1,1-trifluoro-2-methylpropan-2-yl((2R,6S,7R,9R,13aS,14aR,16aS,Z)-2-((6-fluoro-3-methoxyisoquinolin-1-yl)oxy)-14a-(((1-(fluoromethyl)cyclopropyl)sulfonyl)carbamoyl)-7,9-dimethyl-5,16-dioxo-1,2,3,5,6,7,8,9,10,11,13a,14,14a,15,16,16a-hexadecahydrocyclopropa[e]pyrrolo[1,2-a][1,4]diazacyclopentadecin-6-yl)carbamate] as the compound, how does the EC50 [1, 5] read?
Answer: 0.1 to 0.5 nM

Question: What about the EC50 [2, 6] of the same compound?
Answer: 1.01 to 5 nM

Question: With COCCOc1cnc(O[C@@H]2C[C@H]3C(=O)N[C@]4(C(=O)NS(=O)(=O)C5(C)CC5)C[C@H]4/C=C\CC[C@H](C)C[C@@H](C)[C@H](NC(=O)OC(C)(C)C(F)(F)F)C(=O)N3C2)c2ccc(OC)cc12 [Compound 1144, 1,1,1-trifluoro-2-methylpropan-2-yl((2R,6S,7R,9S,13aS,14aR,16aS,Z)-2-((6-methoxy-4-(2-methoxyethoxyl)isoquinolin-1-yl)oxy)-7,9-dimethyl-14a-(((1-methylcyclopropyl)sulfonyl)carbamoyl)-5,16-dioxo-1,2,3,5,6,7,8,9,10,11,13a,14,14a,15,16,16a-hexadecahydrocyclopropa[e]pyrrolo[1,2-a][1,4]diazacyclopentadecin-6-yl)carbamate] as the compound, how does the EC50 [1, 3] read?
Answer: < 5.46 nM

Question: And the EC50 [2, 4]?
Answer: < 5.46 nM

Question: Which results are given for CC(C)Oc1ccc2c(O[C@@H]3C[C@H]4C(=O)N[C@]5(C(=O)NS(=O)(=O)C6(C)CC6)C[C@H]5/C=C\CC[C@@H](C)C[C@@H](C)[C@H](NC(=O)O[C@H](C)C(F)(F)F)C(=O)N4C3)nccc2c1 [Compound 5161, (R)-1,1,1-trifluoropropan-2-yl ((2R,6S,7R,9R,13aS,14aR,16aS,Z)-2-((6-isopropoxyisoquinolin-1-yl)oxy)-7,9-dimethyl-14a-(((1-methylcyclopropyl)sulfonyl)carbamoyl)-5,16-dioxo-1,2,3,5,6,7,8,9,10,11,13a,14,14a,15,16,16a-hexadecahydrocyclopropa[e]pyrrolo[1,2-a][1,4]diazacyclopentadecin-6-yl)carbamate]?
Answer: EC50 [1, 5]: < 5.46 nM; EC50 [2, 6]: < 5.46 nM

Question: How did the EC50 [1, 5] turn out when CC[C@@H]1C[C@H](C)CC/C=C\[C@@H]2C[C@@]2(C(=O)NS(=O)(=O)C2(C)CC2)NC(=O)[C@@H]2C[C@@H](Oc3nc4c(c5cc(OC)ccc35)CCCO4)CN2C(=O)[C@H]1NC(=O)OC(C)(C)C(C)(F)F [Compound 6090, 3,3-difluoro-2-methylbutan-2-yl((2R,6S,7R,9R,13aS,14aR,16aS,Z)-7-ethyl-2-((9-methoxy-2,3-dihydro-1H-pyrano[2,3-c]isoquinolin-6-yl)oxy)-9-methyl-14a-(((1-methylcyclopropyl)sulfonyl)carbamoyl)-5,16-dioxo-1,2,3,5,6,7,8,9,10,11,13a,14,14a,15,16,16a-hexadecahydrocyclopropa[e]pyrrolo[1,2-a][1,4]diazacyclopentadecin-6-yl)carbamate] was run?
Answer: 0.51 to 1 nM

Question: What about the EC50 [2, 6] of the same compound?
Answer: 0.51 to 1 nM

Question: How did the EC50 [1, 5] turn out when CCOc1nnc(O[C@@H]2C[C@H]3C(=O)N[C@]4(C(=O)NS(=O)(=O)C5(C)CC5)C[C@H]4/C=C\CC[C@H](C)C[C@@H](C)[C@H](NC(=O)OC(C)(C)C(F)(F)F)C(=O)N3C2)c2ccccc12 [Compound 5030, 1,1,1-trifluoro-2-methylpropan-2-yl((2R,6S,7R,9S,13aS,14aR,16aS,Z)-2-((4-ethoxyphthalazin-1-yl)oxy)-7,9-dimethyl-14a-(((1-methylcyclopropyl)sulfonyl)carbamoyl)-5,16-dioxo-1,2,3,5,6,7,8,9,10,11,13a,14,14a,15,16,16a-hexadecahydrocyclopropa[e]pyrrolo[1,2-a][1,4]diazacyclopentadecin-6-yl)carbamate] was run?
Answer: 4.82 to 103 nM

Question: What about the EC50 [2, 6] of the same compound?
Answer: 4.82 to 103 nM

From US9499550B2 (BRISTOL-MYERS SQUIBB COMPANY, priority 2012, dated 2016)
